tested on: human LINE-1; assay: Human LINE-1 retrotransposition assay (HeLa cell-based dual-luciferase reporter); conditions: Homo sapiens, HeLa, 72 h, Human LINE-1 activity inhibition; HeLa cells, reporter plasmid pYX017, Firefly/Renilla, 72 h incubation
Experimental: Representative Compounds of the Disclosure were tested for inhibition of retrotransposition activity of human LINE-1 in HeLa cells according to the following procedure.
HeLa cervical cancer cells were cultivated at 37° C. in a humidified 5% CO2 incubator in Dulbecco's Modified Eagle's Medium (DMEM)—high glucose, with 4500 mg/L glucose, L-glutamine, sodium pyruvate and sodium bicarbonate (Sigma), supplemented with 10% of heat inactivated fetal bovine serum (Thermo Fisher).
Assays were performed using reporter plasmid pYX017 as described (Xie, et al., 2011) with several modifications. The reporter assay was performed in 96-well white optical bottom plates. HeLa cells were seeded in wells 24 h prior to transfection and compound treatment so that cells were approximately 30% confluent on the day of transfection. Different cell plating densities were tested and a density of 2×10^3 cells was determined to be optimal.
Compounds were resuspended in DMSO. Serial dilutions (1:3) were prepared in DMSO. Medium containing different concentrations of the compounds were prepared by adding 2 μl of the compound dilution to 1 ml of the culture medium. The final concentration of DMSO in the medium was 0.2%.
FuGENE® HD transfection reagent (Promega, E2311, Lot 382574 and Lot 397842) was used to transfect the plasmids into the cells. The transfection reagent: DNA mixture was prepared in OpiMEM (Thermo Fisher) according to manufacturer's instructions. Different ratios of transfection reagent to DNA were tested and a ratio of 3:1 was determined to be optimal. Culture medium was removed from the cells and discarded. The transfection reagent: DNA mixture (5 μl) was mixed with the compound containing medium (100 μl/well) and this was added onto the cells of each well. Cells were incubated at 37° C./5% CO2 for different incubation time. A 72 h incubation time was determined to be optimal.
Luciferase reporter activity was quantified with the Dual-Luciferase® Reporter Assay System (Promega) according to manufacturer's instructions for multiwell plates except that cells were lysed directly on the multiwell plate with 30 μl of the passive lysis buffer (PLB) for 20 min at room temperature, with gentle shaking to ensure complete cell lysis.
Firefly and Renilla luciferase signals were measured using a SpectraMax i3× Multi-Mode Microplate Reader. Integration times of 100 ms and 10 ms were used to measure the Firefly and Renilla signals respectively. Relative L1 activity is calculated as Firefly/Renilla*1000 or Firefly/Renilla*10,000. Dose response inhibition data were fit to a four parameter logistic equation using non-linear regression (using Graphpad Prism 8), to determine IC50 values for each inhibitor.

Row | IC50 | Structure (SMILES)
1 | > 50 µM | C=C[C@]1(CO)O[C@@H](n2cc(OC)c(=O)[nH]c2=O)C[C@@H]1O [Cpd. No. 6, 1-((2R,4S,5R)-4-hydroxy-5-(hydroxymethyl)-5-vinyltetrahydrofuran-2-yl)-5-methoxypyrimidine-2,4(1H,3H)-dione]
2 | 1.78 µM | C=C[C@]1(CO)O[C@@H](n2cnc3c(OC)nc(N)nc32)C[C@@H]1O [Cpd. No. 102, (2R,3S,5R)-5-(2-amino-6-methoxy-9H-purin-9-yl)-2-(hydroxymethyl)-2-vinyltetrahydrofuran-3-ol]
3 | > 50 µM | C#C[C@@]1(CO)C=C[C@H](n2cnc3c(OC)nc(Cl)nc32)O1 [compound 41, ((2R,5R)-5-(2-chloro-6-methoxy-9H-purin-9-yl)-2-ethynyl-2,5-dihydrofuran-2-yl)methanol]
4 | 9.93 µM | C=C[C@]1(CO)O[C@@H](n2cc(Br)c(=O)[nH]c2=O)C[C@@H]1O [Cpd. No. 64, 5-bromo-1-((2R,4S,5R)-4-hydroxy-5-(hydroxymethyl)-5-vinyltetrahydrofuran-2-yl)pyrimidine-2,4(1H,3H)-dione]
5 | 5.65 µM | C#C[C@]1(CO)OC(n2cc(Br)c(N)nc2=O)C[C@@H]1O (stereo partly drawn) [compound 60, 4-amino-5-bromo-1-((4S,5R)-5-ethynyl-4-hydroxy-5-(hydroxymethyl)tetrahydrofuran-2-yl)pyrimidin-2(1H)-one]
6 | 3.81 µM | C#C[C@]1(CO)OC(n2cc(F)c(=O)[nH]c2=O)C[C@@H]1O (stereo partly drawn) [compound 45, 1-((4S,5R)-5-ethynyl-4-hydroxy-5-(hydroxymethyl)tetrahydrofuran-2-yl)-5-fluoropyrimidine-2,4(1H,3H)-dione]
7 | > 12.5 µM | C#C[C@@]1(CO)C=C[C@H](n2cc(C(F)(F)F)c(=O)[nH]c2=O)O1 [compound 28, 1-((2R,5R)-5-ethynyl-5-(hydroxymethyl)-2,5-dihydrofuran-2-yl)-5-(trifluoromethyl)pyrimidine-2,4(1H,3H)-dione]
8 | 2.2 µM | C#C[C@]1(CO)OC(n2cc(Br)c(=O)[nH]c2=O)C[C@@H]1O (stereo partly drawn) [compound 44, 5-bromo-1-((4S,5R)-5-ethynyl-4-hydroxy-5-(hydroxymethyl)tetrahydrofuran-2-yl)pyrimidine-2,4(1H,3H)-dione]
9 | 2.35 µM | C=C[C@]1(CO)O[C@@H](n2cc(F)c(=O)[nH]c2=O)C[C@@H]1O [Cpd. No. 17, 5-fluoro-1-((2R,4S,5R)-4-hydroxy-5-(hydroxymethyl)-5-vinyltetrahydrofuran-2-yl)pyrimidine-2,4(1H,3H)-dione]
10 | > 50 µM | C#C[C@@]1(CO)C[C@@H](Sc2ccc(C)cc2)[C@H](n2ccc(=O)[nH]c2=O)O1 [compound 31, 1-((2R,3R,5R)-5-ethynyl-5-(hydroxymethyl)-3-(p-tolylthio)tetrahydrofuran-2-yl)pyrimidine-2,4(1H,3H)-dione]
11 | 0.009 µM | C=C[C@]1(CO)O[C@@H](n2cc(F)c(N)nc2=O)C[C@@H]1O [Cpd. No. 8, 4-amino-5-fluoro-1-((2R,4S,5R)-4-hydroxy-5-(hydroxymethyl)-5-vinyltetrahydrofuran-2-yl)pyrimidin-2(1H)-one]
12 | 5.53 µM | CC[C@]1(CO)O[C@@H](n2cnc3c(NC4CC4)nc(F)nc32)C[C@@H]1O [Cpd. No. 99, (2R,3S,5R)-5-(6-(cyclopropylamino)-2-fluoro-9H-purin-9-yl)-2-ethyl-2-(hydroxymethyl)tetrahydrofuran-3-ol]
13 | 0.062 µM | CC[C@]1(CO)O[C@@H](n2cnc3c(O)ncnc32)C[C@@H]1O [Cpd. No. 1]
14 | 20.9 µM | C#C[C@]1(CO)OC(n2cc(OC)c(=O)[nH]c2=O)C[C@@H]1O (stereo partly drawn) [compound 59, 1-((4S,5R)-5-ethynyl-4-hydroxy-5-(hydroxymethyl)tetrahydrofuran-2-yl)-5-methoxypyrimidine-2,4(1H,3H)-dione]
15 | 3.75 µM | CC[C@]1(CO)O[C@@H](n2cc(F)c(=O)[nH]c2=O)C[C@@H]1O [Cpd. No. 18, 1-((2R,4S,5R)-5-ethyl-4-hydroxy-5-(hydroxymethyl)tetrahydrofuran-2-yl)-5-fluoropyrimidine-2,4(1H,3H)-dione]
16 | 0.124 µM | C#C[C@]1(CO)O[C@@H](n2cnc3c(NC4CC4)nc(F)nc32)C[C@@H]1O [compound 85, (2R,3S,5R)-5-(6-(cyclopropylamino)-2-fluoro-9H-purin-9-yl)-2-ethynyl-2-(hydroxymethyl)tetrahydrofuran-3-ol]
17 | > 25 µM | Cc1cn([C@H]2C=C[C@](CO)(C3CC3)O2)c(=O)[nH]c1=O [compound 47, 1-((2R,5S)-5-cyclopropyl-5-(hydroxymethyl)-2,5-dihydrofuran-2-yl)-5-methylpyrimidine-2,4(1H,3H)-dione]
18 | > 50 µM | C#C[C@@]1(CO)C=C[C@H](n2cc(SC(F)(F)F)c(=O)[nH]c2=O)O1 [compound 73, 1-((2R,5R)-5-ethynyl-5-(hydroxymethyl)-2,5-dihydrofuran-2-yl)-5-((trifluoromethyl)thio)pyrimidine-2,4(1H,3H)-dione]
19 | 0.052 µM | C#C[C@]1(CO)O[C@H](n2cnc3c(=O)[nH]c(N)nc32)C[C@@H]1O [compound 49, 2-amino-9-((2S,48,5R)-5-ethynyl-4-hydroxy-5-(hydroxymethyl)tetrahydrofuran-2-yl)-1,9-dihydro-6H-purin-6-one]
20 | > 50 µM | C#C[C@@]1(CO)C[C@@H](Sc2ccc(C)cc2)[C@H](n2cc(C)c(=O)[nH]c2=O)O1 [compound 26, 1-((2R,3R,5R)-5-ethynyl-5-(hydroxymethyl)-3-(p-tolylthio)tetrahydrofuran-2-yl)-5-methylpyrimidine-2,4(1H,3H)-dione]
21 | 2.81 µM | CC[C@]1(CO)O[C@@H](n2cnc3c(N)nc(Cl)nc32)[C@@H](O)[C@@H]1O [compound 193, (2R,3S,4S,5R)-5-(6-amino-2-chloro-9H-purin-9-yl)-2-ethyl-2-(hydroxymethyl)tetrahydrofuran-3,4-diol]
22 | > 50 µM | Cc1cn([C@H]2C=C[C@@](C)(CO)O2)c(=O)[nH]c1=O [compound 21, 1-((2R,5S)-5-(hydroxymethyl)-5-methyl-2,5-dihydrofuran-2-yl)-5-methylpyrimidine-2,4(1H,3H)-dione]
23 | 0.11 µM | CC[C@]1(CO)O[C@@H](n2cnc3c(OC)nc(N)nc32)C[C@@H]1O [Cpd. No. 125, (2R,3S,5R)-5-(2-amino-6-methoxy-9H-purin-9-yl)-2-ethyl-2-(hydroxymethyl)tetrahydrofuran-3-ol]
24 | 7.43 µM | C#C[C@]1(CO)OC(n2cnc3c(OC)ncnc32)C[C@@H]1O (stereo partly drawn) [compound 61, (2R,3S)-2-ethynyl-2-(hydroxymethyl)-5-(6-methoxy-9H-purin-9-yl)tetrahydrofuran-3-ol]
25 | 1.6 µM | CC[C@]1(CO)O[C@H](n2cc(C)c(=O)[nH]c2=O)CC1O (stereo partly drawn) [compound 71, 1-((2S,5R)-5-ethyl-4-hydroxy-5-(hydroxymethyl)tetrahydrofuran-2-yl)-5-methylpyrimidine-2,4(1H,3H)-dione]
26 | 0.89 µM | C=C[C@]1(CO)O[C@H](n2cc(C#N)c(=O)[nH]c2=O)C[C@@H]1O [compound 7, 1-((2S,4S,5R)-4-hydroxy-5-(hydroxymethyl)-5-vinyltetrahydrofuran-2-yl)-2,4-dioxo-1,2,3,4-tetrahydropyrimidine-5-carbonitrile]
27 | > 12.5 µM | C#C[C@@]1(CO)C=C[C@H](n2cc(OC)c(=O)[nH]c2=O)O1 [compound 36, 1-((2R,5R)-5-ethynyl-5-(hydroxymethyl)-2,5-dihydrofuran-2-yl)-5-methoxypyrimidine-2,4(1H,3H)-dione]
28 | > 50 µM | C#C[C@@]1(CO)C=C[C@H](n2ccc3c(=O)[nH]cnc32)O1 [compound 34, 7-((2R,5R)-5-ethynyl-5-(hydroxymethyl)-2,5-dihydrofuran-2-yl)-3,7-dihydro-4H-pyrrolo[2,3-d]pyrimidin-4-one]
29 | > 50 µM | C[C@]1(CO)O[C@@H](n2ccc(N)nc2=O)[C@H](O)[C@@H]1O [compound 198, 4-amino-1-((2R,3R,4S,5R)-3,4-dihydroxy-5-(hydroxymethyl)-5-methyltetrahydrofuran-2-yl)pyrimidin-2(1H)-one]
30 | 0.004 µM | C=C[C@]1(CO)OC(n2cc(Br)c(N)nc2=O)C[C@@H]1O (stereo partly drawn) [compound 67, 4-amino-5-bromo-1-((4S,5R)-4-hydroxy-5-(hydroxymethyl)-5-vinyltetrahydrofuran-2-yl)pyrimidin-2(1H)-one]

same assay, conditions: Human LINE-1 activity inhibition; HeLa cells, reporter plasmid pYX017, Firefly/Renilla, 72 h incubation

Row | Structure (SMILES) | IC50
31 | CC[C@]1(CO)O[C@@H](n2cnc3c(N)nc(Cl)nc32)[C@@H](F)[C@@H]1O [compound 182, (2R,3R,4S,5R)-5-(6-amino-2-chloro-9H-purin-9-yl)-2-ethyl-4-fluoro-2-(hydroxymethyl)tetrahydrofuran-3-ol] | 293 µM

From patent US20260035403A1, “NUCLEOSIDE LINE-1 INHIBITORS” (TRANSPOSON THERAPEUTICS, INC., priority 2022, published 2026)
